Values quoted from earlier work, collected in PMC2096531 (Purinergic Signalling, 2005).

Molecular target: human A2B receptors
Settings: read-out: EC50 A2B, agonist

CCNC(=O)[C@H]1O[C@@H](n2cnc3c(N)nc(C#CC(O)c4ccccc4)nc32)[C@H](O)[C@@H]1O (stereo partly drawn) [(R,S)-PHPNECA, (R,S)-2-phenyhydroxypropynyl-N-ethylcarboxamidoadenosine]
EC50: 1.1 µM
